# Test results reported in ChEMBL document CHEMBL1158461, “The role of amphiphilicity and negative charge in glycoprotein 41 interactions in the hydrophobic pocket” (J Med Chem, 2009).
# Experiment: Displacement of C27-Aib-lucifer yellow from HIV1 envelope glycoprotein gp41 Fe(env3.0)3 receptor by fluorescence assay
# Parameters: species or system Human immunodeficiency virus 1
row,Ki [nM],Compound
1,1200,CC[C@@H](C)[C@H](NC(=O)[C@H](CCC(=O)O)NC(=O)[C@H](CCCNC(=N)N)NC(=O)[C@H](CC(=O)O)NC(=O)[C@H](Cc1c[nH]c2ccccc12)NC(=O)[C@H](CCC(=O)O)NC(=O)C(C)(C)NC(=O)[C@H](Cc1c[nH]c2ccccc12)NC(=O)[C@@H](NC(=O)[C@@H](NC(=O)[C@H](Cc1cnc[nH]1)NC(=O)[C@H](CC(N)=O)NC(=O)[C@H](Cc1c[nH]c2ccccc12)NC(=O)C(C)(C)NC(=O)[C@H](CCC(N)=O)NC(=O)[C@H](CCC(=O)O)NC(=O)[C@H](CC(C)C)NC(=O)[C@H](CO)NC(=O)[C@H](CCCCN)NC(C)=O)[C@@H](C)O)[C@@H](C)O)C(=O)NC(C)(C)C(=O)N[C@@H](CC(N)=O)C(=O)N[C@@H](Cc1ccc(O)cc1)C(=O)N[C@H](C(=O)N[C@@H](CO)C(=O)N[C@@H](CC(C)C)C(=O)N[C@H](C(=O)N[C@@H](CS)C(N)=O)[C@@H](C)CC)[C@@H](C)O

# Experiment: Displacement of C32-Aib-fluorescein from HIV1 envelope glycoprotein gp41 Fe(env5.0)3 receptor by fluorescence assay
# Parameters: species or system Human immunodeficiency virus 1
row,Ki [nM],Compound
1,7,CC[C@H](C)[C@H](NC(=O)[C@H](C)NC(=O)[C@H](CCCNC(=N)N)NC(=O)[C@H](CC(=O)O)NC(=O)[C@H](Cc1c[nH]c2ccccc12)NC(=O)[C@H](C)NC(=O)[C@H](CCC(=O)O)NC(=O)[C@H](Cc1c[nH]c2ccccc12)NC(=O)[C@@H](NC(=O)[C@@H](NC(C)=O)[C@H](C)O)[C@H](C)O)C(=O)N[C@@H](C)C(=O)N[C@@H](CCC(=O)O)C(=O)N[C@@H](Cc1ccc(O)cc1)C(=O)N[C@@H](C)C(=O)N[C@@H](C)C(=O)N[C@@H](CCCNC(=N)N)C(=O)N[C@H](C(=O)N[C@@H](CCC(=O)O)C(=O)N[C@@H](C)C(=O)N[C@@H](CC(C)C)C(=O)N[C@H](C(=O)N[C@@H](CCCNC(=N)N)C(=O)N[C@@H](C)C(=O)N[C@@H](C)C(=O)N[C@@H](CCC(N)=O)C(=O)N[C@@H](CCC(=O)O)C(=O)N[C@@H](CCC(N)=O)C(=O)N[C@@H](CCC(N)=O)C(=O)N[C@@H](CCC(=O)O)C(=O)N[C@@H](CCCCN)C(=O)N[C@@H](CC(N)=O)C(=O)N[C@@H](CS)C(N)=O)[C@@H](C)CC)[C@@H](C)CC

# Experiment: Critical micellar concentration of the compound
row,CMC,Compound
1,5000 µM,CCCCCCCCCCCCS(=O)(=O)[O-].[Na+]
2,15000 µM,CCCCCCCCCCOS(=O)(=O)[O-].[Na+] [SODIUM DECYL SULFATE]
3,30000 µM,CCCCCCCCOS(=O)(=O)[O-].[Na+] [SODIUM OCTYL SULFATE]
4,<= 100 uM,CCCCCCCCCCCCCCCCS(=O)(=O)[O-].[Na+]
5,< 100 µM,CCCCCCCCCCCCCCCCCCOS(=O)(=O)[O-].[Na+] [SODIUM OCTADECYL SULFATE]
6,25000 µM,CCCCCCCCCCS(=O)(=O)[O-].[Na+]
7,600 µM,CCCCCCCCCCCCCOS(=O)(=O)[O-].[Na+] [SODIUM TRIDECYL SULFATE]
8,200000 µM,CCCCCCCC(=O)[O-].[Na+] [SODIUM CAPRYLATE]
9,150 µM,CCCCC(CC)CCC(CC(C)C)OS(=O)(=O)[O-].[Na+] (stereo not given) [SODIUM TETRADECYL SULFATE]
10,600 µM,CCCCCCCCCCCCCCS(=O)(=O)[O-].[Na+]
11,2500 µM,CCCCCCCCCCCC(=O)[O-].[Na+] [SODIUM DODECANOATE]
12,> 250000 µM,CCCCCCCCS(=O)(=O)[O-].[Na+]
13,2000 µM,CCCCCCCCCCCCOS(=O)(=O)[O-].[Na+] [SODIUM LAURYL SULFATE]
